Measurements taken from patent publication US20240343712A1, “SOLID-STATE FORMS OF 2-(3-(4-(1H-INDAZOL-5-YLAMINO)QUINAZOLIN-2-YL)PHENOXY)-N-ISOPROPYLACETAMIDE METHANE SULFONIC ACID SALT” (Sandoz AG, priority 2021, published 2024).

Legend:
[1] = Gravimetric moisture sorption (GMS); assay type: physicochemical; settings: (25 ± 0.1)° C.; for Comment (hygroscopicity / behaviour upon moisture contact) / Δm (0-80% RH): 0-80% RH; for Δm (0-80% RH): gravimetric moisture sorption
Procedure: Moisture sorption isotherms were recorded with an SPSx-1μ moisture sorption analyzer (ProUmid, Ulm). The measurement cycle was started at ambient relative humidity (RH) of 40%. Relative humidity was then decreased to 5% RH in 5% steps, followed by a further decrease to 3% RH and to 0% RH. Afterwards RH was increased from 0% to 90% in a sorption cycle and decreased to 0% in a desorption cycle in 5% steps. Finally RH was increased from 0 to 40% in 5% steps.
The time per step was set to a minimum of 2 hours and a maximum of 6 hours. If an equilibrium condition with a constant mass of +0.01% within 1 hour was reached before the maximum time for all examined samples the sequential humidity step was applied before the maximum time of 6 hours. If no equilibrium was achieved the consecutive humidity step was applied after the maximum time of 6 hours. The temperature was 25±0.1° C.

[2] = Thermogravimetric analysis (TGA); assay type: physicochemical; settings: for stability against temperature stress: DSC and TGA, Examples 7 and 8
Procedure: TGA was performed on a Mettler TGA/DSC 1 instrument. The samples (5.15 mg Form I, 5.69 Form II, 3.97 mg Form HyA, and 8.55 mg Form HyB) were each heated in a 100 microliter aluminium pan closed with an aluminium lid from 25 to 300° C. at a rate of 10 K/min. The lid was automatically pierced at the beginning of the measurement. Nitrogen (purge rate 50 mL/min) was used as purge gas.

| Structure (SMILES) | Comment (hygroscopicity / behaviour upon moisture contact) [1] | Δm (0-80% RH) [1] | stability against temperature stress [2] | also measured |
| --- | --- | --- | --- | --- |
| CC(C)NC(=O)COc1cccc(-c2nc(Nc3ccc4[nH]ncc4c3)c3ccccc3n2)c1.CS(=O)(=O)O [Amorphous mesylate, 2-(3-(4-(1H-indazol-5-ylamino)quinazolin-2-yl)phenoxy)-N-isopropylacetamide methane sulfonic acid] | Very hygroscopic | +21.2 w % w-% | – | Comment (hygroscopicity / behaviour upon moisture contact) ([1]; listed as amorphous belumosudil mesylate): moderately hygroscopic |
| CC(C)NC(=O)COc1cccc(-c2nc(Nc3ccc4[nH]ncc4c3)c3ccccc3n2)c1.CS(=O)(=O)O [Mesylate Form HyA, 2-(3-(4-(1H-indazol-5-ylamino)quinazolin-2-yl)phenoxy)-N-isopropylacetamide methane sulfonic acid] | – | – | – | Relative humidity of dehydration (release of crystal water) [1]: Dehydration below 3% RH; Δm (0-130° C.), TGA mass loss ([2]; 0-130° C., 10 K/min, nitrogen): Δm (0-130° C.) = 5.97%, corresponds to a dihydrate |
| CC(C)NC(=O)COc1cccc(-c2nc(Nc3ccc4[nH]ncc4c3)c3ccccc3n2)c1.CS(=O)(=O)O [Mesylate Form HyB, 2-(3-(4-(1H-indazol-5-ylamino)quinazolin-2-yl)phenoxy)-N-isopropylacetamide methane sulfonic acid] | – | – | – | Δm (0-140° C.), TGA mass loss ([2]; 0-140° C., 10 K/min, nitrogen): Δm (0-140° C.) = 3.19%, corresponds to a monohydrate |
| CC(C)NC(=O)COc1cccc(-c2nc(Nc3ccc4[nH]ncc4c3)c3ccccc3n2)c1.CS(=O)(=O)O [Mesylate Form I, 2-(3-(4-(1H-indazol-5-ylamino)quinazolin-2-yl)phenoxy)-N-isopropylacetamide methane sulfonic acid] | Slightly hygroscopic | +1.9 w-% | stable against temperature stress | Comment (hygroscopicity / behaviour upon moisture contact) ([1]; listed as belumosudil mesylate Form I): only slightly hygroscopic; Δm (0-250° C.), TGA mass loss ([2]; 0-250° C., 10 K/min, nitrogen): Δm (0-250° C.) = 0.87%, anhydrate |
| CC(C)NC(=O)COc1cccc(-c2nc(Nc3ccc4[nH]ncc4c3)c3ccccc3n2)c1.CS(=O)(=O)O [Mesylate Form II, 2-(3-(4-(1H-indazol-5-ylamino)quinazolin-2-yl)phenoxy)-N-isopropylacetamide methane sulfonic acid] | Slightly hygroscopic | +1.4 w-% | stable against temperature stress | Comment (hygroscopicity / behaviour upon moisture contact) ([1]; listed as Form II): only slightly hygroscopic; Δm (0-100° C.), TGA mass loss ([2]; 0-100° C., 10 K/min, nitrogen): Δm (0-100° C.) = 0.32%, anhydrate |
